Laboratory results from ChEMBL document CHEMBL5236544, “Furazans in Medicinal Chemistry” (J Med Chem, 2021).
Where “and” joins values, the source holds several entries; their conditions need not be identical. Identical values can stand only once.

Tests used:
[1] = Stability in rat assessed as intrinsic clearance; format: ADME; conditions: CLH
HeLa [2] = assay: Antitumor activity against human HeLa cells xenografted in mouse model assessed as reduction in tumor growth at 75 mg/kg bid relative to control; format: functional; design: scale not given: the % may be the effect or the level left
[3] = Half life in mouse; format: ADME, organism-based; conditions: in vivo
[4] = Oral bioavailability in rat at 3 mg/kg relative to control; format: ADME, organism-based; conditions: in vivo
HeLa [5] = assay: Antitumor activity against human HeLa cells xenografted in mouse assessed as reduction in tumor growth at 30 mg/kg bid relative to control; format: functional; design: scale not given: the % may be the effect or the level left
HCT-116 [6] = assay: Antiproliferative activity against human HCT-116 cells assessed as inhibition of cell proliferation incubated for 24 hrs by MTT assay; format: functional, cell-based; conditions: HCT-116, 24 h
SW480 = assay: cells; conditions: Homo sapiens, SW480, 24 h
Description: Antiproliferative activity against human SW480 cells assessed as inhibition of cell proliferation incubated for 24 hrs by MTT assay

Rattus norvegicus [7] = assay: Antihypertensive activity in spontaneously hypertensive rat model assessed as change in blood pressure at 1 mg/kg, po measured after 10 hrs; format: functional
Rattus norvegicus [8] = assay: Antihypertensive activity in spontaneously hypertensive rat model assessed as change in blood pressure at 1 mg/kg, po measured after 3 hrs; format: functional
Rattus norvegicus [9] = assay: Antihypertensive activity in spontaneously hypertensive rat model assessed as change in heart rate at 1 mmol/Kg, po measured after 10 hrs; format: functional
Rattus norvegicus [10] = assay: Antihypertensive activity in spontaneously hypertensive rat model assessed as change in heart rate at 1 umol/kg, po measured after 3 hrs; format: functional
Rattus norvegicus [11] = assay: Antihypertensive activity in spontaneously hypertensive rat model assessed as change in blood pressure at 1 mg/kg, po measured after 6 hrs; format: functional
Rattus norvegicus [12] = organism: Rattus norvegicus; assay: Antihypertensive activity in spontaneously hypertensive rat model assessed as reduction in systemic arterial pressure; format: functional
Rattus norvegicus [13] = assay: Antihypertensive activity in spontaneously hypertensive rat model assessed as change in heart rate at 10 mg/Kg, po measured after 6 hrs; format: functional
Rattus norvegicus [14] = organism: Rattus norvegicus; assay: Antihypertensive activity in spontaneously hypertensive rat model assessed as reduction in pulmonary arterial pressure; format: functional
[15] = target: Epidermal growth factor receptor (Homo sapiens, UniProt P00533); assay: Inhibition of EGF-R (unknown origin)
Sequence of Epidermal growth factor receptor (P00533 whole entry): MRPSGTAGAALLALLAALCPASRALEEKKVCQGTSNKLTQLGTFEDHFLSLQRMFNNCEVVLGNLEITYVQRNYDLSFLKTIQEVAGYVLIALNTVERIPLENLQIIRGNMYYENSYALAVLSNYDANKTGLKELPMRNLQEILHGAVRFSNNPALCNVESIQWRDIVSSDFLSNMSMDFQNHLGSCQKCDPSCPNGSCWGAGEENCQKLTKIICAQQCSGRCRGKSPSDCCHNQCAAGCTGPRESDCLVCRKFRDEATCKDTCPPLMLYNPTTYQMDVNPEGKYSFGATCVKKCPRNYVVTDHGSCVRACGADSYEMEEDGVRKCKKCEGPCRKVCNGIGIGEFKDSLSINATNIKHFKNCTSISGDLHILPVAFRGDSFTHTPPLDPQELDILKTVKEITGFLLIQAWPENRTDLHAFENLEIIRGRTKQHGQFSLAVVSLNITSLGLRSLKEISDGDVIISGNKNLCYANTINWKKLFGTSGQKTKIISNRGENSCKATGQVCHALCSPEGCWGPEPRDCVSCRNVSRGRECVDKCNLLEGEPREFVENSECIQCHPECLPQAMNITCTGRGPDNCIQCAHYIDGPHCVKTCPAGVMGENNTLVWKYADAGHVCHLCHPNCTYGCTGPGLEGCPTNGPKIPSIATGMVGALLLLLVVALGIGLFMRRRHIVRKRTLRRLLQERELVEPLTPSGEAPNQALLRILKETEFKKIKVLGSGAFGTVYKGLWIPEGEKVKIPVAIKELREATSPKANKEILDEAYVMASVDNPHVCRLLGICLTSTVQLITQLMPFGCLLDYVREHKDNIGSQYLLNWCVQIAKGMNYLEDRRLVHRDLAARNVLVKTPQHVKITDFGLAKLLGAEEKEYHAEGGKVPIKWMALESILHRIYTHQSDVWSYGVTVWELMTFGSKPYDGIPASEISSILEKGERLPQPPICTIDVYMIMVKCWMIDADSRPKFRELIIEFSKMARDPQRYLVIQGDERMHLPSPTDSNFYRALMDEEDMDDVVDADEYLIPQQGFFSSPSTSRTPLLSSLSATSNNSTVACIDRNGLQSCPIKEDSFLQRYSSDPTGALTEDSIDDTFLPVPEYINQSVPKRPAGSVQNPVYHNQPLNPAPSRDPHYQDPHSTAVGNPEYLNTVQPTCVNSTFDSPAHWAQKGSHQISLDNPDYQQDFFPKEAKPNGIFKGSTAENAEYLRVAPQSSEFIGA

[16] = target: Vascular endothelial growth factor receptor 2 (Homo sapiens, UniProt P35968); assay: Inhibition of VEGF-R2 (unknown origin)
Sequence of Vascular endothelial growth factor receptor 2 (P35968 whole entry): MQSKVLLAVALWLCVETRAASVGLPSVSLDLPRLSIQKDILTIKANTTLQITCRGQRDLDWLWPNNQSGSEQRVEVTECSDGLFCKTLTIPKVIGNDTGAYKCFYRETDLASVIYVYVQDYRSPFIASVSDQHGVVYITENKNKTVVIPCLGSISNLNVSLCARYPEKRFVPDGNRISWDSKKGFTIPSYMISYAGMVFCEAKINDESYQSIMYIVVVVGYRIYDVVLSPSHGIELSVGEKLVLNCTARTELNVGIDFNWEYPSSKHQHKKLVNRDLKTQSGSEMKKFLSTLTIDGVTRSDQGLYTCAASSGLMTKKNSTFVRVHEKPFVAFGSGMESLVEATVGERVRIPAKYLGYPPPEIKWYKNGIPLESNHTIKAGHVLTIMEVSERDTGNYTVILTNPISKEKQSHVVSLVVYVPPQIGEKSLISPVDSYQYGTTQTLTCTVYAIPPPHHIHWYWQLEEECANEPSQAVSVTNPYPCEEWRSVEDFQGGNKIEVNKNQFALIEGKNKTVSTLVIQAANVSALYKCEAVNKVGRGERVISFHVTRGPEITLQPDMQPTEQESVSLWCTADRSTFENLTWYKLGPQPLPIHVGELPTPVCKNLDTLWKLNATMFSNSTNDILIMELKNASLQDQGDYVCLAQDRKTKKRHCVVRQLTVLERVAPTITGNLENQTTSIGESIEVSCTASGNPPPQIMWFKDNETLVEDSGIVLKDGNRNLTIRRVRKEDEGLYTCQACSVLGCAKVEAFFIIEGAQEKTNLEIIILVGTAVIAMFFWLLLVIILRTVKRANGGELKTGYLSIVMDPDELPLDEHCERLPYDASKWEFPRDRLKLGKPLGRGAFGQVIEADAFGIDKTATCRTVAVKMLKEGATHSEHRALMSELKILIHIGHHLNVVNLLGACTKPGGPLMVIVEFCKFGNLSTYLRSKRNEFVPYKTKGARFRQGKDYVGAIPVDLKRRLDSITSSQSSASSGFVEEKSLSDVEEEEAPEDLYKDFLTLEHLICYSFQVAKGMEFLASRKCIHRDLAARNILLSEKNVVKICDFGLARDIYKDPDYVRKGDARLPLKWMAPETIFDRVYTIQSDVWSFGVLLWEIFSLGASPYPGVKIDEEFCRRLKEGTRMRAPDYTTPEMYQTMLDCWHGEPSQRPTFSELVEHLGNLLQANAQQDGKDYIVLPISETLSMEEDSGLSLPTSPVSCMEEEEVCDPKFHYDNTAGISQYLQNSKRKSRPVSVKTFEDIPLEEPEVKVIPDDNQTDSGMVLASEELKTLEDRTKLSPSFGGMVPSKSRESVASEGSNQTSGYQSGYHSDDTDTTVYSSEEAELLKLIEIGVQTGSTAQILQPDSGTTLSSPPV

Aurora kinase B = Aurora kinase B (Homo sapiens, UniProt Q96GD4); assay: Inhibition of Aurora B (unknown origin)
Sequence of Aurora kinase B (Q96GD4 whole entry): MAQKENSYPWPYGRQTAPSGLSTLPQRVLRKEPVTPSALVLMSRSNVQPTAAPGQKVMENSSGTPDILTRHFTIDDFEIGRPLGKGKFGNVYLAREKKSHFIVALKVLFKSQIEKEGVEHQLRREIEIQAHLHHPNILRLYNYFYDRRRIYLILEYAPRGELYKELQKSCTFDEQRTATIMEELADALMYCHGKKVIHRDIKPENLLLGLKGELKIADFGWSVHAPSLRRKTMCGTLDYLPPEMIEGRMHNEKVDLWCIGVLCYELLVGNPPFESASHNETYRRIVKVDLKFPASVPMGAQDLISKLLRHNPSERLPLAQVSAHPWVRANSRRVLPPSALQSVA

[17] = target: Insulin-like growth factor 1 receptor (Homo sapiens, UniProt P08069); assay: Inhibition of IGF-1R (unknown origin)
Sequence of Insulin-like growth factor 1 receptor (P08069 31-736 limits assumed): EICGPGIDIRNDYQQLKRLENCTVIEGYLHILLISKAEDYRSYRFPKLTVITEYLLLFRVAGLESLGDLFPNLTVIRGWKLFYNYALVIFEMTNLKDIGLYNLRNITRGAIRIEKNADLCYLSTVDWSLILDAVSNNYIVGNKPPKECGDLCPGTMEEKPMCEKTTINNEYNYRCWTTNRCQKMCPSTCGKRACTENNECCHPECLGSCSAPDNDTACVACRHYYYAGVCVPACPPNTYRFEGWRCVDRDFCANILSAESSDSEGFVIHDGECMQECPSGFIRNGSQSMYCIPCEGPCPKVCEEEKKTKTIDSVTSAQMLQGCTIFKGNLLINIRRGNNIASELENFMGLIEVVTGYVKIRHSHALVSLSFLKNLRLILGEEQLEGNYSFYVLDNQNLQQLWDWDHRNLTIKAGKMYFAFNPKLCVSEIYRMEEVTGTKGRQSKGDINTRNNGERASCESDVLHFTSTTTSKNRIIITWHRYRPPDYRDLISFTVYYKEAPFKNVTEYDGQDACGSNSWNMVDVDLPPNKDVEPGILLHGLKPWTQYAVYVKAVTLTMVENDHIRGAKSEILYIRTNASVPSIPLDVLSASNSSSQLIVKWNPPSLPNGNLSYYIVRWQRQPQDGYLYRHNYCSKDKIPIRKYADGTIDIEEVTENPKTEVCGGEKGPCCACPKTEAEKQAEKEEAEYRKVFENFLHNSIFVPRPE
Sequence of Insulin-like growth factor 1 receptor (P08069 741-1367 limits assumed): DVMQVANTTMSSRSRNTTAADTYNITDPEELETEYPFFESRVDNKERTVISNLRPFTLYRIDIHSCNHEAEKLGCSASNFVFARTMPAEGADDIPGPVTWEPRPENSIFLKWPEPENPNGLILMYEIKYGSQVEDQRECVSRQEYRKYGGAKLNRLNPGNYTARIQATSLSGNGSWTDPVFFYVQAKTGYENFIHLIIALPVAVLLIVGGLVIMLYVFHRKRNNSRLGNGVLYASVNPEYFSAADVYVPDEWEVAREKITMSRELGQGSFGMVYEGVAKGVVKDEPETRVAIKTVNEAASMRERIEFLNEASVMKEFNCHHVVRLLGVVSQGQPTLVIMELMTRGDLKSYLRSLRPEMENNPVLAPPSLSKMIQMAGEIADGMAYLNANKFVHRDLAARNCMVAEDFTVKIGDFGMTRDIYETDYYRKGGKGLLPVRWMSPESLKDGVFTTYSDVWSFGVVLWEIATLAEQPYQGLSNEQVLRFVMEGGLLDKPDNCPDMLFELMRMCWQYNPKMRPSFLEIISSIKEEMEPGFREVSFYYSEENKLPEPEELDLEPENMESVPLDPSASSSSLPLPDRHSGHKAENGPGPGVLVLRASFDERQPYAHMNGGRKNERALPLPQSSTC

[18] = target: Proto-oncogene tyrosine-protein kinase Src (Homo sapiens, UniProt P12931); assay: Inhibition SRC (unknown origin)
[19] = Antiproliferative activity against mouse Lewis lung carcinoma cell line cells assessed as inhibition of cell proliferation by MTT assay; format: functional, cell-based
HeLa [20] = assay: Antiproliferative activity against human HeLa cells assessed as reduction in cell viability by MTT assay; format: functional, cell-based
HCT-116 [21] = assay: Antiproliferative activity against human HCT-116 cells assessed as inhibition of cell proliferation by MTT assay; format: functional, cell-based
HCT-116 [22] = assay: Antitumor activity against human HCT-116 cells xenografted in mouse model assessed as reduction in tumor growth at 100 mg/kg bid relative to control; format: functional; design: scale not given: the % may be the effect or the level left
[23] = target: Indoleamine 2,3-dioxygenase 1 (Homo sapiens, UniProt P14902); assay: Inhibition of IDO1 (unknown origin)
Sequence of Indoleamine 2,3-dioxygenase 1 (P14902 whole entry): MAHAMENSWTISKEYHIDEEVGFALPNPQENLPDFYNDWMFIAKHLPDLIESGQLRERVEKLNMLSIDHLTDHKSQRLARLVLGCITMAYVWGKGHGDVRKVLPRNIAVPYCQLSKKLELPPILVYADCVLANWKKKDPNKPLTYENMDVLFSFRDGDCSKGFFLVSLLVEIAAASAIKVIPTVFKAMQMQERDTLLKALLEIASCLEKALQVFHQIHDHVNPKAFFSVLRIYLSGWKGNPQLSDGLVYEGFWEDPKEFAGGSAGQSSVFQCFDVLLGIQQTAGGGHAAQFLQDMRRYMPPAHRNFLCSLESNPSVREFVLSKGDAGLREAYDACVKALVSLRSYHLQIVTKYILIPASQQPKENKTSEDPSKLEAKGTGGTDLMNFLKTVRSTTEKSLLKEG

[24] = Inhibition of HIF (unknown origin); design: species or system Homo sapiens
[25] = Lipophilicity, log D of compound; format: physicochemical; conditions: octanol/water
Helicobacter pylori [26] = assay: Antibacterial activity against Helicobacter pylori SS1 assessed as reduction in bacterial growth incubated for 1 hrs in presence of metronidazole by colony-counting method; format: functional
Helicobacter pylori [27] = assay: Antibacterial activity against Helicobacter pylori NCTC11637 assessed as reduction in bacterial growth incubated for 1 hrs in presence of metronidazole-resistant by colony-counting method; format: functional
Mus musculus = assay: In vivo antibacterial activity against Helicobacter pylori SS1 infected mouse model assessed as reduction in infection at 200 mg/kg, po administered for 8 days relative to control; format: functional; design: scale not given: the % may be the effect or the level left; conditions: time 8 day
Helicobacter pylori [28] = assay: Antibacterial activity against Helicobacter pylori NCTC11637 assessed as reduction in bacterial growth incubated for 1 hrs in presence of metronidazole by colony-counting method; format: functional
Helicobacter pylori [29] = assay: Antibacterial activity against Helicobacter pylori SS1 assessed as reduction in bacterial growth in the presence of metronidazole-sensitive by broth microdilution method; format: functional
SK-OV-3 = assay: Antitumor activity against human SK-OV-3 cells in xenografted mouse model assessed as reduction in tumor growth at 30 mg/kg, ip administered daily for 21 days relative to control; format: functional; design: scale not given: the % may be the effect or the level left; conditions: time 21 day
HCC1954 = assay: Antitumor activity against human HCC1954 cells in xenografted mouse model assessed as reduction in tumor growth at 30 mg/kg, ip administered daily for 21 days relative to control; format: functional; design: scale not given: the % may be the effect or the level left; conditions: time 21 day
LNCaP = assay: Antitumor activity against human LNCaP cells in xenografted mouse model assessed as reduction in tumor growth at 30 mg/kg, ip administered daily for 21 days relative to control; format: functional; design: scale not given: the % may be the effect or the level left; conditions: time 21 day
PANC-1 = assay: Antitumor activity against human PANC-1 cells in xenografted mouse model assessed as reduction in tumor growth at 30 mg/kg, ip administered daily for 21 days relative to control; format: functional; design: scale not given: the % may be the effect or the level left; conditions: time 21 day
MDA-MB-453 = assay: Antitumor activity against human MDA-MB-453 cells in xenografted mouse model assessed as reduction in tumor growth at 30 mg/kg, ip administered daily for 21 days relative to control; format: functional; design: scale not given: the % may be the effect or the level left; conditions: time 21 day
BT-474 = assay: Antitumor activity against human BT-474 cells in xenografted mouse model assessed as reduction in tumor growth at 30 mg/kg, ip administered daily for 21 days relative to control; format: functional; design: scale not given: the % may be the effect or the level left; conditions: time 21 day
HASMC = assay: Antiproliferative activity against human HASMC cells assessed as inhibition of cell proliferation measured after 24 hrs by MTT assay; format: functional, cell-based
Rattus norvegicus [30] = assay: Antihypertensive activity in spontaneously hypertensive rat model assessed as change in heart rate at 1 mmol/Kg, po measured after 3 hrs; format: functional
Rattus norvegicus [31] = assay: Antihypertensive activity in spontaneously hypertensive rat model assessed as change in blood pressure at 3 mg/kg, po measured after 10 hrs; format: functional
Rattus norvegicus [32] = assay: Antihypertensive activity in spontaneously hypertensive rat model assessed as change in blood pressure at 3 mg/kg, po measured after 6 hrs; format: functional
Rattus norvegicus [33] = assay: Antihypertensive activity in spontaneously hypertensive rat model assessed as change in blood pressure at 3 mg/kg, po measured after 3 hrs; format: functional
A549 [34] = assay: Antitumor activity against human A549 cells xenografted in mouse model assessed as reduction in tumor growth at 100 mg/kg bid relative to control; format: functional; design: scale not given: the % may be the effect or the level left
A549 [35] = assay: Antiproliferative activity against human A549 cells assessed as inhibition of cell proliferation by MTT assay; format: functional, cell-based
Histone deacetylase = assay: Inhibition of HDAC (unknown origin); format: protein assay, Homo sapiens
[36] = Half life in rat, iv; format: ADME; conditions: in vivo

In the case of `NS(=O)(=O)NCCNc1nonc1/C(=N/O)Nc1ccc(F)c(Br)c1` [EPACADOSTAT], the CLint scaled [1] is reported as 11.7 mL/min/kg, the Activity (HeLa [2]) is reported as 50% and the half-life [3] is reported as less than 0.5 h. It also gave a bioavailability [4] of 11% and an Activity (HeLa [5]) of 56%.

Work on `c1ccc2c(c1)c1nc3nonc3nc1n2CCc1nn[nH]n1` yielded an EC50 (HCT-116 [6]) of 31 µM and an EC50 (SW480) of 20 µM.

Compound `CCn1c(-c2nonc2N)nc2cncc(C(=O)N3CC[C@H](N)C3)c21` has an Activity (Rattus norvegicus [7]) of -5 mmHg, an Activity (Rattus norvegicus [8]) of -20 mmHg and an Activity (Rattus norvegicus [9]) of -25 bpm. It also gave an Activity (Rattus norvegicus [10]) of 20 bpm, an Activity (Rattus norvegicus [11]) of -20 mmHg and an Activity (Rattus norvegicus [12]) of -40 mmHg. The Activity (Rattus norvegicus [13]) was -40 bpm and the Activity (Rattus norvegicus [14]) was -13 mmHg.

In the case of `O=C(O)c1cc(-c2ccc(/C=N/Nc3nc4nonc4nc3Nc3ccccc3)o2)ccc1Cl`, the IC50 [15] is reported as less than 1 µM, the IC50 [16] is reported as less than 1 µM and the IC50 (Aurora kinase B) is reported as less than 1 µM. The IC50 [17] was less than 1 µM and the IC50 [18] was less than 1 µM.

`O=C(NCCNc1nonc1/C(=N/O)Nc1ccc(F)c(Br)c1)c1cccc(N(CCCl)CCCl)c1` gave an EC50 [19] of 18 µM, an EC50 (HeLa [20]) of 0.27 µM and an EC50 (HCT-116 [21]) of 5.1 µM. The Activity (HCT-116 [22]) was 58% and 48% and the IC50 [23] was 0.13 µM.

With `CS(=O)(=O)c1ccc(Oc2cc(F)cc(C#N)c2)c2c1[C@H](O)[C@H](F)[C@@H]2F` [BELZUTIFAN] the IC50 [24] was 9 µM and the logD [25] was 1.2.

For `COc1ccc(C[S+]([O-])c2ccc(N)c3nonc23)cc1` (stereo unspecified), the MIC (Helicobacter pylori [26]) was 2.9 µM, the MIC (Helicobacter pylori [27]) was 53 µM and the Activity (Mus musculus) was 60%. The MIC (Helicobacter pylori [28]) was 187 µM and the MIC (Helicobacter pylori [29]) was 105 µM.

In the case of `CCn1c(-c2nonc2N)nc2c(C#CC(C)(C)O)ncc(OC[C@H]3CCCNC3)c21` [GSK-690693], the Activity (SK-OV-3) is reported as 58%, the Activity (HCC1954) is reported as 65% and the Activity (LNCaP) is reported as 50%. It also gave an Activity (PANC-1) of 5%, an Activity (MDA-MB-453) of 27% and an Activity (BT-474) of 46%.

`O=S(=O)(c1cccc2cnccc12)N1CCCNCC1` [FASUDIL] gave an IC50 (HASMC) of 1.3 µM, an Activity (Rattus norvegicus [30]) of -50 bpm and an Activity (Rattus norvegicus [31]) of 0 mmHg. The Activity (Rattus norvegicus [9]) was -10 bpm, the Activity (Rattus norvegicus [32]) was -20 mmHg and the Activity (Rattus norvegicus [13]) was -10 bpm. For the same compound, the Activity (Rattus norvegicus [33]) was -30 mmHg.

For `Nc1ccccc1NC(=O)c1ccc(C(=O)NCCNc2nonc2/C(=N/O)Nc2ccc(F)c(Br)c2)cc1`, the EC50 [19] was 18 µM, the Activity (A549 [34]) was 56% and 54% and the EC50 (HCT-116 [21]) was 5.1 µM. It also gave an EC50 (A549 [35]) of 0.17 µM, an IC50 (Histone deacetylase) of 0.067 µM and a half-life [36] of 3.4 h.
